# According to ChEMBL document CHEMBL1201862, “PubChem BioAssay data set” (2004):
#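 Assay format: 96-well plates, 48-hour exposure. GI50 is the concentration that inhibits growth by half.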 Active and inactive are the calls of the source. No stated cut-off is given here; in the data, active = GI50 up to about 1.1 µM and inactive = higher.
# Columns and labels:
# Experiment in all cases: NCI anticancer screen, dose series, 48 h
# [1] = system: 786-0
# [2] = system: A498
# [3] = system: A549
# [4] = system: ACHN
# [5] = system: CAKI-1
# [6] = system: CCRF-CEM
# [7] = system: COLO 205
# [8] = system: DLD-1
# [9] = system: DMS-114
# [10] = system: DMS-273
# [11] = system: EKVX
# [12] = system: HCC 2998
# [13] = system: HCT-116
# [14] = system: HCT-15
# [15] = system: HL-60
# [16] = system: HOP-18
# [17] = system: HOP-62
# [18] = system: HOP-92
# [19] = system: HT-29
# [20] = system: IGROV-1
# [21] = system: K562
# [22] = system: KM-20L2
# [23] = system: KM12
# [24] = system: LOX IMVI
# [25] = system: LXFL 529
# [26] = system: M14
# [27] = system: M19-MEL
# [28] = system: MOLT-4
# [29] = system: Malme-3M
# [30] = system: NCI-H226
# [31] = system: NCI-H23
# [32] = system: NCI-H460
# [33] = system: NCI-H522
# [34] = system: OVCAR-3
# [35] = system: OVCAR-4
# [36] = system: OVCAR-5
# [37] = system: OVCAR-8
# [38] = system: RPMI-8226
# [39] = system: RXF 393
# [40] = system: SF-268
# [41] = system: SF-295
# [42] = system: SF-539
# [43] = system: SK-MEL-28
# [44] = system: SK-MEL-2
# [45] = system: SK-MEL-5
# [46] = system: SK-OV-3
# [47] = system: SN12C
# [48] = system: SNB-19
# [49] = system: SNB-75
# [50] = system: SNB-78
# [51] = system: SR
# [52] = system: SW-620
# [53] = system: TK-10
# [54] = system: U-251
# [55] = system: UACC-257
# [56] = system: UACC-62
# [57] = system: UO-31
# [58] = system: XF498
structure (smiles),measurement,setting,value
Cc1nc(C)c(C(=O)Nc2cccc3c2C(=O)NC3=O)cc1C(=O)Nc1cccc2c1C(=O)NC2=O,GI50,[1],> 100 µM (inactive)
same,GI50,[2],> 100 µM (inactive)
same,GI50,[3],> 100 µM (inactive)
same,GI50,[4],> 100 µM (inactive)
same,GI50,[5],> 100 µM (inactive)
same,GI50,[6],> 100 µM (inactive)
same,GI50,[7],> 100 µM (inactive)
same,GI50,[8],> 100 µM (inactive)
same,GI50,[9],> 100 µM (inactive)
same,GI50,[10],> 100 µM (inactive)
same,GI50,[11],> 100 µM (inactive)
same,GI50,[12],> 100 µM (inactive)
same,GI50,[13],> 100 µM (inactive)
same,GI50,[14],> 100 µM
same,GI50,[15],> 100 µM (inactive)
same,GI50,[16],> 100 µM (inactive)
same,GI50,[17],> 100 µM (inactive)
same,GI50,[18],> 100 µM (inactive)
same,GI50,[19],> 100 µM (inactive)
same,GI50,[20],> 100 µM (inactive)
same,GI50,[21],> 100 µM (inactive)
same,GI50,[22],> 100 µM (inactive)
same,GI50,[23],> 100 µM (inactive)
same,GI50,[24],> 100 µM (inactive)
same,GI50,[25],> 100 µM (inactive)
same,GI50,[26],> 100 µM (inactive)
same,GI50,[27],> 100 µM (inactive)
same,GI50,[28],> 100 µM (inactive)
same,GI50,[29],> 100 µM (inactive)
same,GI50,[30],> 100 µM (inactive)
same,GI50,[31],> 100 µM (inactive)
same,GI50,[32],> 100 µM (inactive)
same,GI50,[33],> 100 µM (inactive)
same,GI50,[34],> 100 µM (inactive)
same,GI50,[35],> 100 µM (inactive)
same,GI50,[36],> 100 µM (inactive)
same,GI50,[37],> 100 µM (inactive)
same,GI50,[38],> 100 µM (inactive)
same,GI50,[39],> 100 µM (inactive)
same,GI50,[40],> 100 µM (inactive)
same,GI50,[41],> 100 µM (inactive)
same,GI50,[42],> 100 µM (inactive)
same,GI50,[43],> 100 µM (inactive)
same,GI50,[44],> 100 µM (inactive)
same,GI50,[45],> 100 µM (inactive)
same,GI50,[46],> 100 µM (inactive)
same,GI50,[47],> 100 µM (inactive)
same,GI50,[48],> 100 µM (inactive)
same,GI50,[49],> 100 µM (inactive)
same,GI50,[50],> 100 µM (inactive)
same,GI50,[51],> 100 µM (inactive)
same,GI50,[52],> 100 µM (inactive)
same,GI50,[53],> 100 µM (inactive)
same,GI50,[54],> 100 µM (inactive)
same,GI50,[55],> 100 µM (inactive)
same,GI50,[56],> 100 µM (inactive)
same,GI50,[57],> 100 µM (inactive)
same,GI50,[58],> 100 µM (inactive)
O=C(OC[C@H]1O[C@@H](OC(=O)c2cc(O)c(O)c(O)c2)[C@H](OC(=O)c2cc(O)c(O)c(O)c2)[C@@H](OC(=O)c2cc(O)c(O)c(O)c2)[C@@H]1OC(=O)c1cc(O)c(O)c(O)c1)c1cc(O)c(O)c(O)c1 [PENTAGALLOYL GLUCOSE],GI50,[1],4.99 µM (inactive)
same,GI50,[2],6.32 µM (inactive)
same,GI50,[3],3.54 µM (inactive)
same,GI50,[4],3.89 µM (inactive)
same,GI50,[5],7.67 µM (inactive)
same,GI50,[6],3.33 µM (inactive)
same,GI50,[7],4.98 µM (inactive)
same,GI50,[8],7 µM (inactive)
same,GI50,[9],4.21 µM (inactive)
same,GI50,[10],1.46 µM (inactive)
same,GI50,[11],6.04 µM (inactive)
same,GI50,[12],3.21 µM (inactive)
same,GI50,[13],5.11 µM (inactive)
same,GI50,[14],5.21 µM
same,GI50,[15],3.65 µM (inactive)
same,GI50,[16],36.6 µM (inactive)
same,GI50,[17],3.89 µM (inactive)
same,GI50,[18],5.58 µM (inactive)
same,GI50,[19],6.92 µM (inactive)
same,GI50,[20],5.73 µM (inactive)
same,GI50,[21],47.2 µM (inactive)
same,GI50,[22],4.27 µM (inactive)
same,GI50,[23],2.34 µM (inactive)
same,GI50,[24],1.72 µM (inactive)
same,GI50,[25],11.4 µM (inactive)
same,GI50,[26],7.23 µM (inactive)
same,GI50,[27],9.14 µM (inactive)
same,GI50,[28],3 µM (inactive)
same,GI50,[30],1.49 µM (inactive)
same,GI50,[31],2.16 µM (inactive)
same,GI50,[32],3.27 µM (inactive)
same,GI50,[33],3.46 µM (inactive)
same,GI50,[34],3.78 µM (inactive)
same,GI50,[35],8.91 µM (inactive)
same,GI50,[36],7.94 µM (inactive)
same,GI50,[37],5.22 µM (inactive)
same,GI50,[38],2.76 µM (inactive)
same,GI50,[39],7.73 µM (inactive)
same,GI50,[40],4.57 µM (inactive)
same,GI50,[41],3.92 µM (inactive)
same,GI50,[42],2.49 µM (inactive)
same,GI50,[43],15.3 µM (inactive)
same,GI50,[44],10.7 µM (inactive)
same,GI50,[45],11.3 µM (inactive)
same,GI50,[46],6.17 µM (inactive)
same,GI50,[47],11.9 µM (inactive)
same,GI50,[48],4.88 µM (inactive)
same,GI50,[50],9.51 µM (inactive)
same,GI50,[51],4.13 µM (inactive)
same,GI50,[52],6 µM (inactive)
same,GI50,[53],4.88 µM (inactive)
same,GI50,[54],5.33 µM (inactive)
same,GI50,[55],14.9 µM (inactive)
same,GI50,[56],2.26 µM (inactive)
same,GI50,[57],5.79 µM (inactive)
same,GI50,[58],4.85 µM (inactive)
